# Data reported in PubChem BioAssay (NCI).
# Values joined by “and” are separate entries in the source; they are usually repeats but may differ in a detail not shown here. Identical values can stand only once.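 Cells were grown in 96-well plates and exposed to each compound for 48 hours at five concentrations; endpoints were interpolated linearly between bracketing concentrations, or set to the highest concentration if not reached. At the GI50, growth is halved. TGI marks complete inhibition of growth.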
# What was measured:
# Assay in all cases: NCI-60 cell line screen, 48 h
# [1] = test system: 786-0 renal
# [2] = test system: NCI-H522 lung
# [3] = test system: MDA-MB-231 breast
# [4] = test system: MALME-3M melanoma
# [5] = test system: MOLT-4 leukemia
# [6] = test system: HS 578T breast
# [7] = test system: COLO 205 colon
# [8] = test system: HT29 colon
# [9] = test system: NCI-H226 lung
# [10] = test system: MDA-MB-435
SMILES,GI50 [1],TGI [1],GI50 [2],TGI [2],GI50 [3],TGI [3],GI50 [4],TGI [4],GI50 [5],TGI [5],GI50 [6],TGI [6],GI50 [7],TGI [7],GI50 [8],TGI [8],GI50 [9],TGI [9],GI50 [10],TGI [10]
COc1cccc(-c2nn(-c3ccccc3)cc2-c2ccnc(NCCNS(=O)(=O)c3ccc(C(F)(F)F)cc3)c2)c1,2.63 µM,21.4 µM,2.33 µM,12.5 µM,3.15 µM,> 100 µM,2.33 µM,6.81 µM,1.93 µM,5.48 µM,4.07 µM,> 100 µM,1.87 µM,3.57 µM,2.32 µM,5.75 µM,5.77 µM,> 100 µM,3.23 µM,17.5 µM
C[C@H]1CCC/C=C/[C@@H]2C[C@H](O)C[C@H]2[C@H](O)[C@H](S(=O)c2ccc(O)cc2)CC(=O)O1 (stereo partly specified),0.0251 µM,0.0793 µM,0.141 µM,3.34 µM,0.0245 µM,0.0533 µM,0.0202 µM,0.0709 µM,< 0.0212 µM,–,0.0726 µM,> 100 µM,0.0183 µM,0.0544 µM,–,–,0.0344 µM,0.146 µM,0.0417 µM,–
CC1(C)SC2C(C(=O)O)N=C(Cc3ccccc3)N2C1C(=O)O (stereo unspecified),–,42.1 µM,–,> 100 µM,–,> 100 µM,–,> 100 µM,–,> 100 µM,–,95.7 µM,–,> 100 µM,–,29 µM,–,51.3 µM,–,> 100 µM
O=S(=O)(NCCNc1cc(-c2cn(-c3ccccc3)nc2-c2cccc(O)c2)ccn1)c1ccc(C(F)(F)F)cc1,1.72 µM,4.45 µM,1.67 µM,3.8 µM,2.12 µM,4.72 µM,1.68 µM,4.57 µM,2.05 µM,5.71 µM,2.31 µM,19.4 µM,1.81 µM,4 µM,2.04 µM,5.44 µM,5.36 µM,30.9 µM,2.4 µM,7.63 µM
CN1CCN(C(=O)c2ccc(NC(=O)Nc3ccc(N(C)c4ccnc(Nc5ccc(CS(C)(=O)=O)cc5)n4)cc3)cc2)CC1,> 25 µM,> 25 µM,7.65 µM,> 25 µM,> 23.8 µM,> 25 µM,> 15 µM,> 25 µM,9.25 µM,> 25 µM,4.62 µM,> 22.1 µM,13 µM,> 25 µM,11.4 µM,> 25 µM,6.79 µM,> 25 µM,> 25 µM,> 25 µM
O=C1C(=O)c2cc([N+](=O)[O-])ccc2-c2ccccc21,1.97 µM,3.39 µM,1.28 µM,2.68 µM,1.64 µM,3.15 µM,1.77 µM,3.4 µM,–,–,1.68 µM,4.49 µM,1.94 µM,3.49 µM,1.95 µM,3.9 µM,1.78 µM,3.27 µM,0.402 µM,1.53 µM
CNC(=O)c1ccc(Nc2ncc(C(F)(F)F)c(NCc3nccnc3N(C)S(C)(=O)=O)n2)cc1,2.17 µM and 1.98 µM and 2.01 µM,> 10 µM and 11.6 µM and 18.3 µM,1.97 µM and 2.52 µM and 2.76 µM,7.06 µM and 13.3 µM and 7.4 µM,2.55 µM and 3.12 µM and 2.6 µM,> 10 µM and 11.9 µM,4.1 µM and 2.98 µM and 3.71 µM,> 10 µM and 13.3 µM and 12.7 µM,3.25 µM and 2.64 µM and 3.09 µM,9.97 µM and 8.58 µM and 8.76 µM,0.283 µM and 2.44 µM and 1.5 µM,7.19 µM and 9.3 µM and 8.29 µM,1.32 µM and 1.37 µM and 1.39 µM,2.91 µM and 2.78 µM and 3.17 µM,3.41 µM and 2.75 µM and 3.21 µM,> 10 µM and 8.63 µM and 11.3 µM,1.26 µM and 2.71 µM and 3.28 µM,6.67 µM and 12 µM and 18.2 µM,3.55 µM and 3.05 µM and 2.67 µM,> 10 µM and 13.6 µM and 15.2 µM
CCC1CCc2nc3sc(C(=O)Nc4ccccc4F)c(N)c3cc2C1 (stereo unspecified),41.7 µM,> 100 µM,24.8 µM,> 100 µM,> 100 µM,> 100 µM,3.55 µM,> 100 µM,0.471 µM,> 100 µM,2.13 µM,> 100 µM,7.4 µM,> 100 µM,0.915 µM,> 100 µM,> 100 µM,> 100 µM,0.133 µM,0.562 µM
O=C(OC(C(=O)O)C(OC(=O)c1ccccc1)C(=O)O)c1ccccc1 (stereo unspecified) (tested in a mixture with another compound),–,> 100 µM,–,55.4 µM,–,95.2 µM,–,> 100 µM,–,> 100 µM,–,64.8 µM,–,> 100 µM and 16.6 µM,–,> 100 µM,–,> 100 µM,–,62.7 µM
O=C1C2CC3C(CC2C(=O)[N]1[Sn]([c]1ccccc1)([c]1ccccc1)[c]1ccccc1)C1(Cl)C(Cl)=C(Cl)C3(Cl)C1(Cl)Cl (stereo unspecified),0.157 µM,0.336 µM,0.0924 µM,0.226 µM,0.127 µM,0.37 µM,0.195 µM,0.387 µM,0.0827 µM,0.546 µM,0.204 µM,1.11 µM,0.152 µM,0.33 µM,–,–,0.184 µM,0.437 µM,0.0872 µM,0.257 µM
Cc1cc(N(CCOS(C)(=O)=O)CCOS(C)(=O)=O)ccc1C=Nc1ccc(-c2csc(-c3ccccc3)n2)c(Cl)c1,–,17.7 µM,–,3.02 µM,–,50.9 µM,–,25 µM,–,38.7 µM,–,49.8 µM,–,10.2 µM,–,31.5 µM,–,45.2 µM,–,38 µM
COc1ccc(C(=O)/C=C/c2cc3ccccc3[nH]c2=O)cc1,–,> 37.4 µM,13.5 µM,24.5 µM,22.3 µM,> 56.4 µM,40.8 µM,> 100 µM,22.2 µM,> 100 µM,20.8 µM,> 100 µM,18.5 µM,35.3 µM,19.3 µM,> 80.5 µM,22.1 µM,> 100 µM,21.2 µM,> 55.8 µM
[N-]=[N+]=NC1(N=[N+]=[N-])C(=O)NN=C(c2ccccc2)C1=O (stereo unspecified),–,> 100 µM,–,> 100 µM,–,> 100 µM,–,> 100 µM,–,73.6 µM,–,> 100 µM,–,> 100 µM,–,> 100 µM,–,> 100 µM,–,42.6 µM
Nc1ncc(-c2cnn(C3CCNCC3)c2)cc1-c1nc2ccccc2o1,1.4 µM,2.92 µM,0.757 µM,2.4 µM,2.32 µM,6.56 µM,1.72 µM,3.37 µM,0.361 µM,1.32 µM,1.75 µM,4.28 µM,1.55 µM,3.05 µM,0.441 µM,2.63 µM,1.97 µM,6.59 µM,1.21 µM,2.62 µM
N=c1nc(N)c2cc3c(N)nc(=N)c3cc12,–,56.6 µM,–,46.4 µM,–,8.09 µM,–,18 µM,–,> 61 µM,–,> 100 µM,–,> 100 µM,–,> 100 µM,–,44.7 µM,–,> 100 µM
O=C(O)C1C2C=CC(O2)C1C(=O)Nc1ccccc1 (stereo unspecified),–,> 100 µM,–,> 100 µM,–,> 100 µM,–,> 100 µM,–,> 100 µM,–,> 100 µM,–,> 100 µM,–,> 100 µM,–,> 100 µM,–,> 100 µM
COc1cc(N2CCC(N3CCN(C)CC3)CC2)ccc1Nc1ncc(Cl)c(Nc2ccccc2P(C)(C)=O)n1,1.12 µM,7.59 µM,0.759 µM,17.3 µM,0.625 µM,31.7 µM,7.66 µM,> 100 µM,4.58 µM,> 100 µM,2.46 µM,24.1 µM,0.381 µM,2.08 µM,0.204 µM,4.81 µM,0.417 µM,5.21 µM,2.94 µM,> 100 µM
CC(=O)[O-].CC(=O)[O-].[Mn+2].c1ccc(/C(=N\Nc2ccccn2)c2ccccn2)cc1,0.097 µM,13.8 µM,0.0289 µM,0.277 µM,0.0399 µM,16.3 µM,0.0362 µM,16.8 µM,0.00103 µM,1.29 µM,–,70.2 µM,–,–,0.00276 µM,11.3 µM,–,3 µM,–,18.7 µM
CC1=CC2=C(OCO1)C(=O)c1ccccc1C2=O,–,> 56.9 µM,–,8.87 µM,–,22.4 µM,–,6.48 µM,–,25.3 µM,–,4.25 µM,–,11.5 µM,–,16.8 µM,–,30.2 µM,–,2.77 µM
Nc1ccccc1NC(=O)c1ccc(CSc2nc(N3CCOCC3)c3cccn3n2)cc1,0.988 µM,5.48 µM,0.339 µM,2.09 µM,0.806 µM,11.7 µM,0.834 µM,> 100 µM,–,–,0.781 µM,> 100 µM,1.07 µM,2.96 µM,0.411 µM,4.54 µM,1.26 µM,3.95 µM,0.27 µM,1 µM
COc1ccc(-c2cc(-c3ccc(Nc4nc(Nc5ccc(Cl)cc5)nc(Nc5ccc(Cl)cc5)n4)cc3)no2)cc1,5.42 µM,25.5 µM,7.67 µM,25.5 µM,16.4 µM,> 100 µM,20.5 µM,49 µM,1.39 µM,5.44 µM,20.3 µM,> 100 µM,11.6 µM,29.7 µM,15.1 µM,59.9 µM,19.8 µM,49.2 µM,10.3 µM,37 µM
NC1=NC(=O)N2CC12 (stereo unspecified),160 µM,> 100 µM and 506 µM,116 µM,> 100 µM and 367 µM,107 µM,244 µM,57.8 µM and 79.7 µM,> 100 µM and 202 µM,53.3 µM,> 100 µM and 185 µM,316 µM,1720 µM,278 µM,> 100 µM and 929 µM,400 µM,> 100 µM and 3130 µM,184 µM,> 100 µM and 896 µM,90.9 µM and 78 µM,194 µM
C#C[C@@]1(O)[C@@H](CO)O[C@@H](n2cc(Cl)c3c(N)ncnc32)[C@@H]1O,0.322 µM,1.33 µM,0.134 µM,0.455 µM,0.169 µM,0.951 µM,0.241 µM,3.18 µM,0.17 µM,> 26.4 µM,1.07 µM,> 26.5 µM,0.106 µM,0.379 µM,0.0436 µM,–,0.508 µM,–,0.166 µM,2.4 µM
N=c1ccn2c(n1)OC1C(OP(=O)(O)O)C(CO)OC12 (stereo unspecified),–,> 100 µM,–,> 100 µM,–,> 100 µM,–,> 100 µM,–,> 63.3 µM,–,> 100 µM,–,> 100 µM,–,> 100 µM,–,> 100 µM,–,> 100 µM
O=c1ncc(-c2ccc(C(F)(F)F)cc2)c(NC2CCCCCC2)[nH]1,23.6 µM,52.4 µM,19.7 µM,44.4 µM,16.6 µM,38.1 µM,17.2 µM,33.7 µM,17.9 µM,43.1 µM,17.9 µM,53.9 µM,19.6 µM,34.7 µM,21.5 µM,39 µM,19.4 µM,46 µM,15.6 µM,34.4 µM
CCCCCCCCCCCCCOC(=O)c1c(C)[nH]c(/C=C2\N=C(c3ccc[nH]3)C=C2OC)c1C,0.161 µM,12.7 µM,0.215 µM,> 64.3 µM,< 0.0314 µM,–,2.6 µM,> 100 µM,0.0807 µM,> 100 µM,0.0853 µM,5.47 µM,0.0583 µM,> 100 µM,< 0.0126 µM,> 100 µM,1.02 µM,> 57.4 µM,0.0411 µM,> 100 µM
NCCCNc1ccc2c(c1)[n+]([O-])c1ccccc1[n+]2[O-],–,> 100 µM,–,30.7 µM,–,57.6 µM,–,46.6 µM,–,67.2 µM,–,60 µM,–,45.2 µM,–,> 100 µM,–,45.5 µM,–,> 100 µM
CCc1ccc(C2=C/C(=C/c3ccc(Cl)cc3)C(=O)N2CCc2ccc(S(N)(=O)=O)cc2)cc1,1.86 µM,3.53 µM,2.55 µM,7.39 µM,2.36 µM,5.92 µM,1.96 µM,5.19 µM,2.19 µM,6.87 µM,3.05 µM,10.9 µM,1.78 µM,3.54 µM,2.22 µM,4.58 µM,2.37 µM,6.34 µM,2.15 µM,4.81 µM
